Tests used:
Test in all cases: Disk diffusion
[1] = system: Shigella flexneri NCTC 8192; format: cell-based; settings: S. flexneri NCTC 8192
Protocol: Plates were incubated at 35° C.

[2] = system: Aeromonas hydrophila NCTC 8049/ATCC 7966; settings: A. hydrophila NCTC 8049; note: test concentration or dose not given here
[3] = system: Citrobacter freundii NCTC 9750/ATCC 8090; settings: C. freundii NCTC 9750
[4] = system: Escherichia coli NCTC 10538; settings: E. coli NCTC 10538
[5] = system: Moraxella catarrhalis NCTC 3625; settings: M. catarrhalis NCTC 3625
[6] = system: Proteus mirabilis NCTC 10975; settings: P. mirabilis NCTC 10975
[7] = system: Pseudomonas aeruginosa NCTC 10662; settings: P. aeruginosa NCTC 10662
[8] = system: Salmonella enterica subsp. enterica serovar Typhimurium ATCC 13311; settings: S. typhimurium ATCC 13311
[9] = system: Stenotrophomonas maltophilia ATCC 13637; settings: S. maltophilia ATCC 13637
[10] = system: Yersinia enterocolitica clinical 26609; settings: Y. enterocolitica clinical 26609
[11] = system: Bacillus cereus ATCC 13061; settings: B. cereus ATCC 13061
[12] = system: Bacillus subtilis ATCC 6633; settings: B. subtilis ATCC 6633
[13] = system: Enterococcus faecalis NCTC 775; settings: E. faecalis NCTC 775; note: test concentration or dose not given here
[14] = system: Listeria monocytogenes NCTC 7973; settings: L. monocytogenes NCTC 7973; note: test concentration or dose not given here
[15] = system: Micrococcus luteus ATCC 10240; settings: M. luteus ATCC 10240
[16] = system: Staphylococcus aureus NCTC 6571/ATCC 9144; settings: S. aureus NCTC 6571
[17] = system: Staphylococcus aureus (methicillin resistant) NCTC 10442; settings: S. aureus NCTC 10442
[18] = system: Staphylococcus epidermidis ATCC 12228; settings: S. epidermidis ATCC 1228
[19] = system: Staphylococcus xylosus ATCC 29971; settings: S. xylosus ATCC 29971
[20] = system: Streptococcus pneumoniae ATCC 49619; settings: S. pneumoniae ATCC 49619; note: test concentration or dose not given here
[21] = system: Streptococcus pyogenes NCTC 8191; settings: S. pyogenes NCTC 8191
[22] = system: E. coli NCTC 10418; settings: E. coli NCTC 10418
[23] = system: A. calcoaceticus ATCC 15308
[24] = system: K. pneumoniae NCTC 10896
[25] = system: V. cholerae non-01 clinical
[26] = system: C. albicans ATCC 90028

## O=C(O)c1ccc(CCc2ccc(CCc3ccc(C(=O)O)cc3)c(CCc3ccc(C(=O)O)cc3)c2)cc1 [TSB068]
[1]
  Zone of Inhibition: 0 mm
[2]
  Zone of Inhibition: 7 mm
[3]
  Zone of Inhibition: 0 mm
[4]
  Zone of Inhibition: 0 mm
[5]
  Zone of Inhibition: 32 mm
[6]
  Zone of Inhibition: 0 mm
[7]
  Zone of Inhibition: 0 mm
[8]
  Zone of Inhibition: 0 mm
[9]
  Zone of Inhibition: 0 mm
[10]
  Zone of Inhibition: 0 mm
[11]
  Zone of Inhibition: 0 mm
[12]
  Zone of Inhibition: 0 mm
[13]
  Zone of Inhibition: 0 mm
[14]
  Zone of Inhibition: 15 mm
[15]
  Zone of Inhibition: 8 mm
[16]
  Zone of Inhibition: 8 mm
[17]
  Zone of Inhibition: 0 mm
[18]
  Zone of Inhibition: 0 mm
[19]
  Zone of Inhibition: 0 mm
[20]
  Zone of Inhibition: 23 mm
[21]
  Zone of Inhibition: 20 mm
[22]
  Zone of Inhibition: 0 mm
[23]
  Zone of Inhibition: 0 mm
[24]
  Zone of Inhibition: 0 mm
[25]
  Zone of Inhibition: 0 mm
[26]
  Zone of Inhibition: 0 mm
